Assay results taken from patent publication US7935503B2, “Methods for producing and using polymyxins” (University of Georgia Research Foundation, Inc., priority 2007, dated 2011).

Key:
Type in all cases: cell-based
[1] = test system: Salmonella typhimurium ATCC 29629; assay: Minimum inhibitory concentration (NCCLS dilution method), Salmonella typhimurium [sic]; settings: Salmonella typhimurium ATCC 29629 (second line, r16), Gram negative; triplicate, identical values
Procedure: (§1) Bacterial Strains and Culture Conditions. Paenibacillus amylolyticus C27, C25, C26, C28, and C30 were isolated from the hindgut extract of a Tipula abdominalis larva as described in Cook et al. (2007, Appl. Environ. Microbiol., 73:5683-5686), and grown aerobically at 28° C. on tryptic soy agar (TSA) and in tryptic soy both (TSB) or Davis minimal media broth (MM) (Atlas, 1993, Handbook of Microbiological Media, Boca Raton, Fla., CRC Press, Inc.). Escherichia coli ATCC 11303 was grown aerobically at 37° C. on Luria-Bertani agar or in broth. Enterococcus faecalis ATCC 19433, Pseudomonas aeruginosa ATCC 27853, Salmonella typhimurium ATCC 29629, Shigella fexneri ATCC 9199, Bacillus subtilis ATCC 6633, Staphylococcus aureus ATCC 6538, and Streptococcus pyogenes ATCC 19615 were grown aerobically at 37° C. on TSA.
Minimum inhibitory concentrations. Both P. amylolyticus C27 peaks with antibacterial activity from HPLC purification of 500 mL minimal media culture were combined. […]

[2] = test system: Salmonella typhimurium ATCC 29629; assay: Minimum inhibitory concentration (NCCLS dilution method); settings: Salmonella typhimurium ATCC 29629 (first line, r15), Gram negative; triplicate, identical values
Procedure: as §1
(§2) Minimum inhibitory concentrations. Both P. amylolyticus C27 peaks with antibacterial activity from HPLC purification of 500 mL minimal media culture were combined. For analysis of polymyxin B (Sigma-Aldrich, St. Louis, Mo.), polymyxin E (Sigma-Aldrich, St. Louis, Mo.), and the P. amylolyticus C27 antibacterials, MIC determinations were performed according to the National Committee for Clinical Laboratory Standards (NCCLS) (Table 2) (NCCLS, 2003, Methods for dilution antimicrobial susceptibility tests for bacteria that grow aerobically; approved standard—sixth edition. NCCLS document M7-A6. Wayne, Pa., National Committee for Clinical Laboratory Standards).

[3] = test system: Escherichia coli ATCC 11303; assay: as above; settings: Escherichia coli ATCC 11303, Gram negative; triplicate, identical values
Procedure: as §1, §2

[4] = test system: Streptococcus pyogenes ATCC 19615; assay: as above; settings: Streptococcus pyogenes ATCC 19615, Gram positive; triplicate, identical values
Procedure: as §1, §2

[5] = test system: Staphylococcus aureus ATCC 6538; assay: as above; settings: Staphylococcus aureus ATCC 6538, Gram positive; triplicate, identical values
Procedure: as §1, §2

[6] = test system: Enterococcus faecalis ATCC 19433; assay: as above; settings: Enterococcus faecalis ATCC 19433, Gram positive; triplicate, identical values
Procedure: as §1, §2

[7] = test system: Pseudomonas aeruginosa ATCC 27853; assay: as above; settings: Pseudomonas aeruginosa ATCC 27853, Gram negative; triplicate, identical values
Procedure: as §1, §2

Substance | Minimum inhibitory concentration [1] [µg/mL] | Minimum inhibitory concentration [2] [µg/mL] | Minimum inhibitory concentration [3] [µg/mL] | Minimum inhibitory concentration [4] [µg/mL] | Minimum inhibitory concentration [5] [µg/mL] | Minimum inhibitory concentration [6] [µg/mL] | Minimum inhibitory concentration [7] [µg/mL]
polymyxin B | 4 | 4 | 2 | 32 | 32 | >128 | 4
polymyxin E | 2 | 1 | 2 | >128 | 128 | >128 | 4
